The values that follow come from ChEMBL document CHEMBL1153352 (Bioorg Med Chem Lett, 2009).

Data set [1] is described as follows: Solubility in water at pH 7.4. Type of data set: physicochemical.
Data set [2] concerns the target Hepatocyte growth factor receptor (Homo sapiens, UniProt P08581). Description: Inhibition of GST-tagged human c-Met expressed in SF9 cells.

As usually defined, the solubility is the concentration that dissolves in the medium under given conditions.

Each structure is given as a SMILES string. Converted amounts (≈) assume the structure as drawn.

Sequence of Hepatocyte growth factor receptor (P08581 whole entry): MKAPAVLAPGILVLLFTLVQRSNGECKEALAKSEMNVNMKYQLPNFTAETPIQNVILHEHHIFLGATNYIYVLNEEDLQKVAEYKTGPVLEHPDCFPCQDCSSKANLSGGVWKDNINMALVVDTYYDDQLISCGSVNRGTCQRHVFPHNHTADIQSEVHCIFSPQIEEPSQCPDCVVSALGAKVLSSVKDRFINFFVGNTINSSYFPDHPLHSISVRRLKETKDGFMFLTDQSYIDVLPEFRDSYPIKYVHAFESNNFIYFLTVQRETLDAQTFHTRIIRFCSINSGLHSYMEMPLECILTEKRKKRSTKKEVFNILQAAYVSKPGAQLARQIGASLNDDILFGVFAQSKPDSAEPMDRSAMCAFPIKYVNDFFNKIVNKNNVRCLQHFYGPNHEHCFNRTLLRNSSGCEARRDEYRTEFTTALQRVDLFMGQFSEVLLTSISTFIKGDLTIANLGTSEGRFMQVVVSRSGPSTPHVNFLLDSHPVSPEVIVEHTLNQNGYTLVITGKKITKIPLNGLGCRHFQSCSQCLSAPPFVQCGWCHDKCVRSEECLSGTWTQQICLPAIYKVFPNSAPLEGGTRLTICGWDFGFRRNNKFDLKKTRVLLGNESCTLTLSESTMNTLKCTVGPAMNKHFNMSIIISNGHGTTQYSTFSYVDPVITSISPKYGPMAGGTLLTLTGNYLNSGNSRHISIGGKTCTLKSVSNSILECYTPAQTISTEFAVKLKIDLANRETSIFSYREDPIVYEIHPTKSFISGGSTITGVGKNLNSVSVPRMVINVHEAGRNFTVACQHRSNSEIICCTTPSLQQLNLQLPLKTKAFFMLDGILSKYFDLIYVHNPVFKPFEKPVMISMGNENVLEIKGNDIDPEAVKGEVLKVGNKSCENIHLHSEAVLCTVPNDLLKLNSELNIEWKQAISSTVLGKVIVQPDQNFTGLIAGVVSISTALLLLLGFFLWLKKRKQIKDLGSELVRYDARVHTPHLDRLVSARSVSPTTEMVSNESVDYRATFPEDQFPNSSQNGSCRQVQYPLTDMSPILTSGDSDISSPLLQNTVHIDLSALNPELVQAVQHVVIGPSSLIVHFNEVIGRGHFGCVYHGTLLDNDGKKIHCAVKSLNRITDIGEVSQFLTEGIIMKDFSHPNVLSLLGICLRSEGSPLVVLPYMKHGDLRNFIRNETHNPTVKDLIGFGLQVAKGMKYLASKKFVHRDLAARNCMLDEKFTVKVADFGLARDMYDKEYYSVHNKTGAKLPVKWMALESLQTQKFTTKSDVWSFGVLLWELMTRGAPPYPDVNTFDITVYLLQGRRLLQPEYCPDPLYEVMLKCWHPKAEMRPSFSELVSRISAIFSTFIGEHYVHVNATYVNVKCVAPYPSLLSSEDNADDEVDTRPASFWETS

The compound `N#Cc1ccc2[nH]c(-c3ccncc3)c(-c3ccc(F)cc3)c2n1` returned a solubility in data set [1] of 1 µg/mL (≈ 3.18 µM).
As to `CS(=O)(=O)c1ccc(-c2c(-c3ccncc3)[nH]c3ccc(C#N)nc23)cc1`, the IC50 result in data set [2] was “Not Active”.
On the same count and under the same terms, as for `N#Cc1ccc2[nH]c(-c3ccncc3)c(-c3ccncc3)c2n1`, the entry is “Not Active”.
Still for that read-out and setting: as for `N#Cc1ccc2[nH]c(-c3ccncc3)c(-c3cnc(N)nc3)c2n1`, the entry is “Not Active”; as for `N#Cc1ccc2[nH]c(-c3ccccc3)c(-c3ccc(F)cc3)c2n1`, “Not Active”.
